According to patent publication US20260365653A1, “IRREVERSIBLE MUTEGFR INHIBITORS” (Bayer Aktiengesellschaft, priority 2022, published 2026):
pIC50: −log10 of the molar value.

Experiments:
[1] = target: T1, mutEGFR (D770_N771insSVD) (Homo sapiens, UniProt P00533, DUP768-770); assay: Exon20-Mutant-EGFR (D770_N771insSVD) kinase assay (TR-FRET); format: biochemical; conditions: mutEGFR (D770_N771insSVD) kinase assay IC50, Table 2a; D770_N771insSVD; 2 mM ATP
T1 construct: GST-EGFR #3 (SVD between D770 and N771); made in house; host or cells: Sf9 insect cells (baculovirus)

[2] = target: T2, mutEGFR (D770_N771insNPG, T790) (Homo sapiens, UniProt P00533, INS770NPG/T790M); assay: mutEGFR (D770_N771insNPG, T790) kinase assay; format: biochemical; conditions: Table 2a, D770_N771insNPG
T2 construct: exact insNPG construct not described; in-house EGFR proteins were N-terminal GST fusions from baculovirus/insect cells (borders R669-A1210 given only for WT, insSVD, insASV)
Text: The different EGFR proteins used in the biochemical kinase activity inhibition assays were generated inhouse by expression in insect cells using Baculo Virus system and subsequent purification as described in the following paragraphs.
The cDNAs encoding the various protein sequences from human EGFR human (P00533) were optimized for expression in eukaryotic cells and synthesized by the GeneArt Technology at Life Technologies.

BA/F3 (insSVD) cells = assay: Ba/F3-EGFR-insSVD cell survival assay (Cell Titer-Glo); format: cell-based; conditions: Table 3a, cell survival, Cell Titer-Glo, with 10 ng/ml EGF, without IL-3
Summary of the method: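 CellTiter-Glo luminescence read after 48 h compound exposure at 37° C. Cells: IL-3-independent Ba/F3 lines transduced with EGFR-insSVD or EGFR-insSVD T790M, maintained on 10 ng/ml EGF and seeded at 4000 per well.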

T2 sequence (P00533 with tags, fused parts or gaps INS770NPG/T790M limits assumed): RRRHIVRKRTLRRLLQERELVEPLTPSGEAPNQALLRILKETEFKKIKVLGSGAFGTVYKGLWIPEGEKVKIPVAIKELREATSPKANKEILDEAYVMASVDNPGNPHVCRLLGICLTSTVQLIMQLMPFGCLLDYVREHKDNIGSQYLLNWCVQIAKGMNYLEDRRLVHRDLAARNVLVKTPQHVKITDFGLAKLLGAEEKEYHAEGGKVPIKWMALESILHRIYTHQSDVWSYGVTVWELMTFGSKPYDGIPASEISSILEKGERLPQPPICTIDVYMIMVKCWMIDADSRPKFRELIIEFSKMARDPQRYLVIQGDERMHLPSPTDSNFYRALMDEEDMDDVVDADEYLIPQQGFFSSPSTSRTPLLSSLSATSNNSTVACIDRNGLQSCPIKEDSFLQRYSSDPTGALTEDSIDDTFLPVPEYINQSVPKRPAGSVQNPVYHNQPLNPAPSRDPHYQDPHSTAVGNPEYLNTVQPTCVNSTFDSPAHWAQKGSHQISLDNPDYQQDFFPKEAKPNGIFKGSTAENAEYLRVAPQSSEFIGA
T1 sequence (P00533 with tags, fused parts or gaps DUP768-770): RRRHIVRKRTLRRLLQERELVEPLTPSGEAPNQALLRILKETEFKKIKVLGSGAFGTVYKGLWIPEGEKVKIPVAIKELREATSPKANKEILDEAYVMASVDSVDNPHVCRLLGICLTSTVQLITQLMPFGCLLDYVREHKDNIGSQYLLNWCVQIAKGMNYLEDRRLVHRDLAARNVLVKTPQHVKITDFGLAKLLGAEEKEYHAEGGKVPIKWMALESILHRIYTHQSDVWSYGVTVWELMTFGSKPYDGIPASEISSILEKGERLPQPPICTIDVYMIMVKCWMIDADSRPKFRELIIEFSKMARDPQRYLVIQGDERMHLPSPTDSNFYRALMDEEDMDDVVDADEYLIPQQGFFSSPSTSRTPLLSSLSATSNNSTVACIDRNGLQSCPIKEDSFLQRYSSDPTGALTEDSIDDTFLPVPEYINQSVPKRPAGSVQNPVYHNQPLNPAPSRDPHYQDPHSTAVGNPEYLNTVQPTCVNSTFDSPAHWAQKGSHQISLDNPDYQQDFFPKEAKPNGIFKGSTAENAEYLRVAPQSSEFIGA

Row | pIC50 [1] | pIC50 [2] | Compound | pIC50 (BA/F3 (insSVD) cells; 48 h) | pIC50 (BA/F3 (insSVD) cells; Mus musculus, BaF3, 48 h)
1 | 9.32 | 8.91 | C=CC(=O)N1Cc2c(-c3ccncc3)c(-c3ccc(OC)cc3)nn2C(C)C1 (single isomer, unassigned; isomer 2) [Example 275, 1-[2-(4-methoxyphenyl)-7-methyl-3-(pyridin-4-yl)-6,7-dihydropyrazolo[1,5-a]pyrazin-5(4H)-yl]prop-2-en-1-one (isomer 2)] | 7.77 | 
2 | 7.44 | 6.70 | CCOc1ccc(-c2nn3c(c2-c2ccncc2)CN(C(=O)/C=C/CN(C)C)CC3)cc1 [Example 147, (2E)-4-(dimethylamino)-1-[2-(4-ethoxyphenyl)-3-(pyridin-4-yl)-6,7-dihydropyrazolo[1,5-a]pyrazin-5(4H)-yl]but-2-en-1-one] |  | 5.53
3 | 8.78 | 8.04 | C=CC(=O)N1CCn2nc(-c3ccc(Cl)cc3F)c(-c3ccnc4[nH]ccc34)c2C1 [Example 104, 1-[2-(4-chloro-2-fluorophenyl)-3-(1H-pyrrolo[2,3-b]pyridin-4-yl)-6,7-dihydropyrazolo[1,5-a]pyrazin-5(4H)-yl]prop-2-en-1-one] |  | 7.49
4 | 8.08 | 7.94 | C=CC(=O)N1CCn2nc(-c3ccc(Cl)cc3OC)c(-c3ccncc3)c2C1 [Example 116, 1-[2-(4-chloro-2-methoxyphenyl)-3-(pyridin-4-yl)-6,7-dihydropyrazolo[1,5-a]pyrazin-5(4H)-yl]prop-2-en-1-one] |  | 6.20
5 | 9.79 | 9.50 | CN(C)C/C=C/C(=O)N1CCn2nc(-c3ccc4cc[nH]c4c3)c(-c3ccncc3)c2C1 [Example 200, (2E)-4-(dimethylamino)-1-[2-(1H-indol-6-yl)-3-(pyridin-4-yl)-6,7-dihydropyrazolo[1,5-a]pyrazin-5(4H)-yl]but-2-en-1-one] |  | 7.16
6 | 7.60 | 6.79 | CN(C)C/C=C/C(=O)N1Cc2c(-c3ccncc3)c(-c3ccc(F)cc3)nn2CC1(C)C [Example 216, (2E)-4-(dimethylamino)-1-[2-(4-fluorophenyl)-6,6-dimethyl-3-(pyridin-4-yl)-6,7-dihydropyrazolo[1,5-a]pyrazin-5(4H)-yl]but-2-en-1-one] |  | 6.38
7 | 7.05 | 5.46 | C=CC(=O)N1CCn2nc(-c3ccc(C(F)(F)F)cc3)c(-c3ccnc4[nH]c(C)cc34)c2C1 [Example 54, 1-[3-(2-methyl-1H-pyrrolo[2,3-b]pyridin-4-yl)-2-[4-(trifluoromethyl)phenyl]-6,7-dihydropyrazolo[1,5-a]pyrazin-5(4H)-yl]prop-2-en-1-one] |  | 6.30
8 | 6.95 | 7.61 | C=CC(=O)N1Cc2c(-c3ccnc4[nH]cc(C)c34)c(-c3ccc(F)cc3)nn2C[C@H]1C [Example 263, 1-[(6R)-2-(4-fluorophenyl)-6-methyl-3-(3-methyl-1H-pyrrolo[2,3-b]pyridin-4-yl)-6,7-dihydropyrazolo[1,5-a]pyrazin-5(4H)-yl]prop-2-en-1-one] |  | 7.09
9 | 6.75 | 5.67 | C=CC(=O)N1CCn2nc(-c3ccc(C(F)(F)F)cc3F)c(-c3ccnc4[nH]cc(C)c34)c2C1 [Example 174, 1-(2-(2-fluoro-4-(trifluoromethyl)phenyl)-3-(3-methyl-1H-pyrrolo[2,3-b]pyridin-4-yl)-6,7-dihydropyrazolo[1,5-a]pyrazin-5(4H)-yl) prop-2-en-1-one] |  | 6.80
10 | 7.94 | 7.14 | C=CC(=O)N1CCn2nc(-c3ccc(SC(F)(F)F)cc3)c(-c3ccncc3)c2C1 [Example 143, 1-[3-(pyridin-4-yl)-2-{4-[(trifluoromethyl)sulfanyl]phenyl}-6,7-dihydropyrazolo[1,5-a]pyrazin-5(4H)-yl]prop-2-en-1-one] |  | 6.17
11 | 6.01 | 6.80 | C=CC(=O)N1CCn2nc(-c3cccc(C#N)c3)c(-c3ccnc4[nH]cc(C)c34)c2C1 [Example 45] |  | 6.66
12 | 8.14 | 7.63 | COc1ccc(-c2nn3c(c2-c2ccncc2)CN(C(=O)/C=C/CN(C)C)CC3)cc1 [Example 30, (2E)-4-(dimethylamino)-1-[2-(4-methoxyphenyl)-3-(pyridin-4-yl)-6,7-dihydropyrazolo[1,5-a]pyrazin-5(4H)-yl]but-2-en-1-one] |  | 5.97
13 | 8.68 | 8.27 | CC(C)(C)OC(=O)NCC#CC(=O)N1CCn2nc(-c3ccc(F)cc3)c(-c3ccncc3)c2C1 [Example 90, tert-butyl {4-[2-(4-fluorophenyl)-3-(pyridin-4-yl)-6,7-dihydropyrazolo[1,5-a]pyrazin-5(4H)-yl]-4-oxobut-2-yn-1-yl}carbamate] |  | 6.78
14 | 8.22 | 7.64 | C=CC(=O)N1CCn2nc(-c3ccc(Cl)cc3F)c(-c3ccnc4[nH]cc(F)c34)c2C1 [Example 52, 1-[2-(4-chloro-2-fluorophenyl)-3-(3-fluoro-1H-pyrolo[2,3-b]pyridin-4-yl)-6,7-dihydropyrazolo[1,5-a]pyrazin-5(4H)-yl]prop-2-en-1-one] |  | 7.45
15 | 8.87 | 8.51 | C=CC(=O)N1Cc2c(-c3ccncc3)c(-c3ccc(OC)cc3)nn2C(C)C1 (single isomer, unassigned; isomer 1) [Example 274, 1-[2-(4-methoxyphenyl)-7-methyl-3-(pyridin-4-yl)-6,7-dihydropyrazolo[1,5-a]pyrazin-5(4H)-yl]prop-2-en-1-one (isomer 1)] | 7.47 | 
16 | 8.05 | 7.22 | CN(C)C/C=C/C(=O)N1CCn2nc(-c3ccc(OC(F)(F)F)cc3)c(-c3ccncc3)c2C1 [Example 145, (2E)-4-(dimethylamino)-1-[3-(pyridin-4-yl)-2-[4-(trifluoromethoxy)phenyl]-6,7-dihydropyrazolo[1,5-a]pyrazin-5(4H)-yl]but-2-en-1-one] |  | 6.22
17 | 8.72 | 8.04 | CN(C)C/C=C/C(=O)N1CCn2nc(-c3ccc(C(F)F)cc3)c(-c3ccncc3)c2C1 [Example 148, (2E)-1-{2-[4-(difluoromethyl)phenyl]-3-(pyridin-4-yl)-6,7-dihydropyrazolo[1,5-a]pyrazin-5(4H)-yl}-4-(dimethylamino)but-2-en-1-one] |  | 6.41
18 | 6.06 | 5.97 | C=CC(=O)N1CCn2nc(-c3ccc(C#N)cc3)c(-c3ccnc4[nH]cc(C)c34)c2C1 [Example 182, 4-[3-(3-methyl-1H-pyrrolo[2,3-b]pyridin-4-yl)-5-(prop-2-enoyl)-4,5,6,7-tetrahydropyrazolo[1,5-a]pyrazin-2-yl]benzonitrile] |  | 6.27
19 | 6.06 | 6.18 | C=CC(=O)N1CCn2nc(-c3ccc(OC)cc3)c(-c3ccnc4[nH]cc(C)c34)c2C1 [Example 47, 1-[2-(4-methoxyphenyl)-3-(3-methyl-1H-pyrrolo[2,3-b]pyridin-4-yl)-6,7-dihydropyrazolo[1,5-a]pyrazin-5(4H)-yl]prop-2-en-1-one] |  | 6.64
20 | 5.86 | 6.76 | C=CC(=O)N1Cc2c(-c3ccnc4[nH]cc(C)c34)c(-c3cccc(C#N)c3)nn2C[C@H]1C [Example 284, 3-[(6R)-6-methyl-3-(3-methyl-1H-pyrrolo[2,3-b]pyridin-4-yl)-5-(prop-2-enoyl)-4,5,6,7-tetrahydropyrazolo[1,5-a]pyrazin-2-yl]benzonitrile] |  | 6.28
21 | 9.35 | 9.08 | C=CC(=O)N1CCn2nc(-c3ccc4sccc4c3)c(-c3ccncc3)c2C1C (racemic) [Example 242, 1-[(RS)-2-(1-benzothiophen-5-yl)-4-methyl-3-(pyridin-4-yl)-6,7-dihydropyrazolo[1,5-a]pyrazin-5(4H)-yl]prop-2-en-1-one] |  | 7.32
22 | 7.42 | 7.74 | C=CC(=O)N1CCn2nc(-c3ccccc3OC)c(-c3ccncc3)c2C1 [Example 39, 1-[2-(2-methoxyphenyl)-3-(pyridin-4-yl)-6,7-dihydropyrazolo[1,5-a]pyrazin-5(4H)-yl]prop-2-en-1-one] |  | 6.21
23 | 9.13 | 8.55 | C=CC(=O)N1CCn2nc(-c3ccc(OC)cc3F)c(-c3ccncc3)c2C1 [Example 142, 1-[2-(2-fluoro-4-methoxyphenyl)-3-(pyridin-4-yl)-6,7-dihydropyrazolo[1,5-a]pyrazin-5(4H)-yl]prop-2-en-1-one] |  | 7.28
24 | 9.95 | 9.83 | C=CC(=O)N1CCn2nc(-c3cc4ccccc4cc3F)c(-c3ccncc3)c2C1 [Example 109, 1-[2-(3-fluoronaphthalen-2-yl)-3-(pyridin-4-yl)-6,7-dihydropyrazolo[1,5-a]pyrazin-5(4H)-yl]prop-2-en-1-one] |  | 7.38
25 | 7.87 | 7.30 | O=C(/C=C/CN1CC(F)(F)C1)N1CCn2nc(-c3ccc(F)cc3)c(-c3ccncc3)c2C1 [Example 84, (2E)-4-(3,3-difluoroazetidin-1-yl)-1-[2-(4-fluorophenyl)-3-(pyridin-4-yl)-6,7-dihydropyrazolo[1,5-a]pyrazin-5(4H)-yl]but-2-en-1-one] |  | 5.91
